Source: patent publication US20220089575A1, “FARNESOID X RECEPTOR AGONISTS AND USES THEREOF” (Metacrine, Inc., priority 2017, published 2022)

Target: T1, hFXR (Homo sapiens, UniProt Q96RI1)
T1 construct: expressed in transfected cells; host or cells: CV-1 cells
T1 sequence (Q96RI1 1-486): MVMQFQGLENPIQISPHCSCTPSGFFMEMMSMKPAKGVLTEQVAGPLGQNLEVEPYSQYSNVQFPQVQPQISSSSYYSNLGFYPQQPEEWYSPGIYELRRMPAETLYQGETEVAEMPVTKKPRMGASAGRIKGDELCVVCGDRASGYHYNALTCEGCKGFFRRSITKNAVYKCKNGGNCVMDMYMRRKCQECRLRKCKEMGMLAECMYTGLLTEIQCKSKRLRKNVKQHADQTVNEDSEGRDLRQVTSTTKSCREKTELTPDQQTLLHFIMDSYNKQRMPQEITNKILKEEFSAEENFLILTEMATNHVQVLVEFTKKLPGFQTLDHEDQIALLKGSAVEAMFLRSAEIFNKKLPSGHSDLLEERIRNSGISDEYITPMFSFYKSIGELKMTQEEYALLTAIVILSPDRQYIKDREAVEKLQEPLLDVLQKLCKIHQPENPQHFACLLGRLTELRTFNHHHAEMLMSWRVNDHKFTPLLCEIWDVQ
T1 sequence (P19793 1-462 partner): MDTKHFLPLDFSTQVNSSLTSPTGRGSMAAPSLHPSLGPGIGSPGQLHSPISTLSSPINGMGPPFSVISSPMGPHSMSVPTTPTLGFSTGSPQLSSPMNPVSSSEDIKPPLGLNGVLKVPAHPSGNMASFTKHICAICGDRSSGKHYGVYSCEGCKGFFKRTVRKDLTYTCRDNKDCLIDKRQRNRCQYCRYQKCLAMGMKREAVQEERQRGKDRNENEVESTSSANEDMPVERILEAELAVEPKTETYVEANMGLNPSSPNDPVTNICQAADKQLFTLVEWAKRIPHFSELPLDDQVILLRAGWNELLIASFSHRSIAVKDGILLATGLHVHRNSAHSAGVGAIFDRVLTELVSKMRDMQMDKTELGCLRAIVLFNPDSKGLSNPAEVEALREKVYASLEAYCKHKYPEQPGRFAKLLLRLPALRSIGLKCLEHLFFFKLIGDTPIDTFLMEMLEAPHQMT
Test: In Vitro FXR Assay (TK): TK-ECRE-luc reporter in transfected CV-1 cells
Type: cell-based
Settings: 18 hrs, luminescence, maximum efficacy of <25% of the Fexarmine control classified as '+'
Summary of the method: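 Transiently transfected monkey CV-1 cells (hFXR, hRXR, TK-ECRE-luciferase, YFP control plasmid), held in stripped-serum DMEM, received compound dilutions from DMSO for 18 h at 37 °C. Activity was taken from luminescence of the cell lysates.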

| Compound | EC50 [nM] |
| --- | --- |
| COc1ccc([C@H]2CC[C@H](CN(c3cccc(-c4cnn(C5CC5)c4)c3)C(=O)[C@H]3CC[C@H](CC(=O)O)CC3)CC2)cc1C [Compound 20.09, 2-(trans-4-((3-(1-Cyclopropyl-1H-pyrazol-4-yl)phenyl)((trans-4-(4-methoxy-3-methylphenyl)cyclohexyl)methyl)carbamoyl)cyclohexyl)acetic acid] | ≤ 250 |
| COc1ccc([C@H]2CC[C@H](CN(c3cc(-c4cnn(C5CC5)c4)ccn3)C(=O)[C@H]3CC[C@H](CC(=O)O)CC3)CC2)cc1C [Compound 20.10, 2-(trans-4-((4-(1-Cyclopropyl-1H-pyrazol-4-yl)pyridin-2-yl)((trans-4-(4-methoxy-3-methylphenyl)cyclohexyl)methyl)carbamoyl)cyclohexyl)acetic acid] | ≤ 250 |
| COc1ccc([C@H]2CC[C@H](CN(c3cccc(-c4cnn(C5CC5)c4)c3)C(=O)[C@H]3CC[C@H](CC(=O)O)CC3)CC2)cc1C#N [Compound 20.11, 2-(trans-4-(((trans-4-(3-Cyano-4-methoxyphenyl)cyclohexyl)methyl)(3-(1-cyclopropyl-1H-pyrazol-4-yl)phenyl)carbamoyl)cyclohexyl)acetic acid] | ≤ 250 |
| CN(C)c1ccc([C@H]2CC[C@H](CN(c3cccc(-c4cnn(C5CC5)c4)c3)C(=O)[C@H]3CC[C@H](CC(=O)O)CC3)CC2)cn1 [Compound 20.12, 2-(trans-4-((3-(1-Cyclopropyl-1H-pyrazol-4-yl)phenyl)((trans-4-(6-(dimethylamino)pyridin-3-yl)cyclohexyl)methyl)carbamoyl)cyclohexyl)acetic acid] | ≤ 250 |
| COc1ccc([C@H]2CC[C@H](CN(c3cccc(-c4cnn(C(C)C)c4)c3)C(=O)[C@H]3CC[C@H](CC(=O)O)CC3)CC2)nc1C [Compound 20.13, 2-(trans-4-((3-(1-Isopropyl-1H-pyrazol-4-yl)phenyl)((trans-4-(5-methoxy-6-methylpyridin-2-yl)cyclohexyl)methyl)carbamoyl)cyclohexyl)acetic acid] | ≤ 250 |
| COc1ccc([C@H]2CC[C@H](CN(c3cccc(-c4cnn(C(C)C)c4)c3)C(=O)[C@H]3CC[C@H](CC(=O)O)CC3)CC2)cc1C [Compound 20.14, 2-(trans-4-((3-(1-Isopropyl-1H-pyrazol-4-yl)phenyl)((trans-4-(4-methoxy-3-methylphenyl)cyclohexyl)methyl)carbamoyl)cyclohexyl)acetic acid] | ≤ 250 |
| COc1ccc([C@H]2CC[C@H](CN(c3cc(-c4cnn(C(C)C)c4)ccn3)C(=O)[C@H]3CC[C@H](CC(=O)O)CC3)CC2)cc1C [Compound 20.15, 2-(trans-4-((4-(1-Isopropyl-1H-pyrazol-4-yl)pyridin-2-yl)((trans-4-(4-methoxy-3-methylphenyl)cyclohexyl)methyl)carbamoyl)cyclohexyl)acetic acid] | ≤ 250 |
| COc1ccc([C@H]2CC[C@H](CN(c3cccc(-c4cnn(C(C)C)c4)c3)C(=O)[C@H]3CC[C@H](CCC(=O)O)CC3)CC2)cc1C [Compound 20.16, 3-(trans-4-((3-(1-Isopropyl-1H-pyrazol-4-yl)phenyl)((trans-4-(4-methoxy-3-methylphenyl)cyclohexyl)methyl)carbamoyl)cyclohexyl)propanoic acid] | ≤ 250 |
| COc1ccc(C23CCC(CN(c4cc(-c5coc(C6CC6)n5)ccn4)C(=O)[C@H]4CC[C@H](CC(=O)O)CC4)(CC2)CC3)cc1C [Compound 21, trans-2-(4-((4-(2-Cyclopropyloxazol-4-yl)pyridin-2-yl)((4-(4-methoxy-3-methylphenyl)bicyclo[2.2.2]octan-1-yl)methyl)carbamoyl)cyclohexyl) acetic acid] | ≤ 250 |
| COc1ccc([C@H]2CC[C@H](CN(c3cc(-c4coc(C5CC5)n4)ccn3)C(=O)[C@H]3CC[C@H](CC(=O)O)CC3)CC2)cc1C [Compound 21.01, 2-(trans-4-((4-(2-Cyclopropyloxazol-4-yl)pyridin-2-yl)((trans-4-(4-methoxy-3-methylphenyl)cyclohexyl)methyl)carbamoyl)cyclohexyl)acetic acid] | ≤ 250 |
| COc1ccc([C@H]2CC[C@H](CN(c3cccc(-c4coc(C5CC5)n4)c3)C(=O)[C@H]3CC[C@H](CC(=O)O)CC3)CC2)cc1C [Compound 21.02, 2-(trans-4-((3-(2-Cyclopropyloxazol-4-yl)phenyl)((trans-4-(4-methoxy-3-methylphenyl)cyclohexyl)methyl)carbamoyl)cyclohexyl)acetic acid] | ≤ 250 |
| COc1ccc([C@H]2CC[C@H](CN(c3cccc(-c4coc(C5CC5)n4)c3)C(=O)[C@H]3CC[C@H](CC(=O)O)CC3)CC2)nc1C [Compound 21.03, 2-(trans-4-((3-(2-Cyclopropyloxazol-4-yl)phenyl)((trans-4-(5-methoxy-6-methylpyridin-2-yl)cyclohexyl)methyl)carbamoyl)cyclohexyl) acetic acid] | ≤ 250 |
| COc1ccc([C@H]2CC[C@@H](CN(c3cccc(-c4coc(C5CC5)n4)c3)C(=O)[C@H]3CC[C@H](CC(=O)O)CC3)CC2)nc1C [Compound 21.04, 2-(trans-4-((3-(2-Cyclopropyloxazol-4-yl)phenyl)((cis-4-(5-methoxy-6-methylpyridin-2-yl)cyclohexyl)methyl)carbamoyl)cyclohexyl) acetic acid] | ≥ 1000 |
| COc1ccc([C@H]2CC[C@H](CN(c3cccc(-c4coc(C5CC5)n4)c3)C(=O)[C@H]3CC[C@H](CC(=O)O)CC3)CC2)cc1C#N [Compound 21.05, 2-(trans-4-(((trans-4-(3-Cyano-4-methoxyphenyl)cyclohexyl)methyl)(3-(2-cyclopropyloxazol-4-yl)phenyl)carbamoyl)cyclohexyl)acetic acid] | ≤ 250 |
| CN(C)c1ccc([C@H]2CC[C@H](CN(c3cccc(-c4coc(C5CC5)n4)c3)C(=O)[C@H]3CC[C@H](CC(=O)O)CC3)CC2)cn1 [Compound 21.06, 2-(trans-4-((3-(2-Cyclopropyloxazol-4-yl)phenyl)((trans-4-(6-(dimethylamino)pyridin-3-yl)cyclohexyl)methyl)carbamoyl)cyclohexyl) acetic acid] | ≤ 250 |
| COc1ccc([C@H]2CC[C@H](CN(c3cc(-c4coc(C5CC5)n4)ccn3)C(=O)[C@H]3CC[C@H](CC(=O)O)CC3)CC2)nc1C [Compound 21.07, 2-(trans-4-((4-(2-Cyclopropyloxazol-4-yl)pyridin-2-yl)((trans-4-(5-methoxy-6-methylpyridin-2-yl)cyclohexyl)methyl)carbamoyl)cyclohexyl) acetic acid] | ≤ 250 |
| COc1ccc([C@H]2CC[C@H](CN(c3cccc(-c4coc(C(C)C)n4)c3)C(=O)[C@H]3CC[C@H](CC(=O)O)CC3)CC2)cc1C [Compound 21.08, 2-(trans-4-((3-(2-lsopropyloxazol-4-yl)phenyl)((trans-4-(4-methoxy-3-methylphenyl)cyclohexyl)methyl)carbamoyl)cyclohexyl)acetic acid] | ≤ 250 |
| COc1ccc([C@H]2CC[C@H](CN(c3cc(-c4coc(C(C)C)n4)ccn3)C(=O)[C@H]3CC[C@H](CC(=O)O)CC3)CC2)cc1C [Compound 21.09, 2-(trans-4-((4-(2-Isopropyloxazol-4-yl)pyridin-2-yl)((trans-4-(4-methoxy-3-methylphenyl)cyclohexyl)methyl)carbamoyl)cyclohexyl)acetic acid] | ≤ 250 |
| COc1ccc([C@H]2CC[C@H](CN(c3cccc(-c4coc(C(C)C)n4)c3)C(=O)[C@H]3CC[C@H](CC(=O)O)CC3)CC2)cc1C#N [Compound 21.10, 2-(trans-4-(((trans-4-(3-Cyano-4-methoxyphenyl)cyclohexyl)methyl)(3-(2-isopropyloxazol-4-yl)phenyl)carbamoyl)cyclohexyl)acetic acid] | ≤ 250 |
| COc1ccc([C@H]2CC[C@H](CN(c3cc(-c4coc(C(C)C)n4)ccn3)C(=O)[C@H]3CC[C@H](CC(=O)O)CC3)CC2)cc1C#N [Compound 21.11, 2-(trans-4-(((trans-4-(3-Cyano-4-methoxyphenyl)cyclohexyl)methyl)(4-(2-isopropyloxazol-4-yl)pyridin-2-yl)carbamoyl)cyclohexyl)acetic acid] | ≤ 250 |
| COc1ccc([C@H]2CC[C@H](CN(c3cc(-c4coc(C5CC5)n4)ccn3)C(=O)[C@H]3CC[C@H](CC(=O)O)CC3)CC2)cc1C#N [Compound 21.12, 2-(trans-4-(((trans-4-(3-Cyano-4-methoxyphenyl)cyclohexyl)methyl)(4-(2-cyclopropyloxazol-4-yl)pyridin-2-yl)carbamoyl)cyclohexyl)acetic acid] | ≤ 250 |
